The source of these data is patent publication US20190390220A1, “Compositions and Methods of Increasing Aphid Resistance in Transgenic Plants” (Boyce Thompson Institute, priority 2018, published 2019).

Test [1] deals with A. glycines. As to the kind of experiment: flavonoid in vitro feeding bioassay on artificial diet, soybean aphid. It is filed as in vivo, Aphis glycines. The note with it: artificial diet with 0.01% apigenin; compared with control diet (DMSO); adults. How it is done: (§1) A pea aphid colony (A. pisum strain CWR09/18, kindly supplied by Angela Douglas, Cornell University) was reared on faba bean plants (Viciafaba, var. Windsor; Johnny's Selected Seeds, Winslow, Me., USA) which were grown in Metromix 200 (Scotts, Marysville, Ohio, USA) in a growth chamber at the same condition with soybeans in insect rearing room at 25° C. with a 12:12 h day:night cycle (64). A soybean aphid colony (A. glycines), kindly supplied by Gustavo Macintosh at Iowa State University, was reared on soybean plants (G. max var. William 82) that were grown in same soil and conditions as described for the pea aphid colony.
(§2) For flavonoid in vitro feeding bioassays, the effects of three isoflavones, daidzein, formononetin and prunetin, as well as two flavones, apigenin and kaempferol on A. glycines and A. pisum adults were tested by rearing 30 insects on an artificial diet (65) in membrane feeding tubes. Adults were fed an artificial diet containing one of the following treatments, 0.01% apigenin, 0.2% daidzein, 0.01% prunetin, 0.04% formononetin or 0.02% kaempferol for 6 days in an insect rearing room (25° C. with a 12:12 h day:night cycle). […] The compound concentrations for diet experiments were based on their measured concentrations in soybean leaves. After 6 days of feeding, the number of surviving aphids was counted.

Test [2] deals with A. pisum. As to the kind of experiment: flavonoid in vitro feeding bioassay on artificial diet, pea aphid. The class given is in vivo, Acyrthosiphon pisum. As to conditions: artificial diet with 0.2% daidzein, 0.01% prunetin or 0.04% formononetin; compared with control diet (DMSO) or flavones; adults. How it is done:
as §1, §2

The test system of test [3] is Anticarsia gemmatalis. As to conditions: constitutively produced in soybean PI 227697 leaves; cited from earlier work.
The test system of test [4] is Trichoplusia ni. As to conditions: constitutively produced in soybean PI 227697 leaves; cited from earlier work.

For `O=c1cc(-c2ccc(O)cc2)oc2cc(O)cc(O)c12` [apigenin], the “mortality of SBA” value in test [1] is reported as “increased”. On to `O=c1c(-c2ccc(O)cc2)coc2cc(O)ccc12` [daidzein], for which the “mortality of PA” value in test [2] is “higher mortality”. In the case of `O=c1c(-c2ccc(O)cc2)coc2cc(O[C@@H]3O[C@H](CO)[C@@H](O)[C@H](O)[C@H]3O)cc(O)c12` [genistin], the “performance of Anticarsia gemmatalis larvae” value in test [3] was “negatively affect the performance”. Besides, the “performance of Trichoplusia ni larvae” value in test [4] was “negatively affect the performance”.

With `COc1cc(O)c2c(=O)c(-c3ccc(O)cc3)coc2c1` [prunetin], in test [2], the “mortality of PA” value is given as “higher mortality”.
